Results from ChEMBL document CHEMBL1201862, “PubChem BioAssay data set” (2004).
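Dose response: 5 concentrations. Exposure: 48 h. Format: 96-well plates. Endpoint: linear interpolation; highest concentration if not reached. GI50 = concentration required for 50% inhibition of growth.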 Activity calls are given as the source filed them. Cut-off read from the data, not from the text of the source: active = GI50 up to about 1.1 µM and inactive = higher.

Columns and labels:
Assay in all cases: DTP human tumour cell line panel, 48 h
786-0 = test system: 786-0
COLO 205 = test system: COLO 205
HCC 2998 = test system: HCC 2998
HL-60 = test system: HL-60
HOP-92 = test system: HOP-92
HT-29 = test system: HT-29
LOX IMVI = test system: LOX IMVI
NCI-H226 = test system: NCI-H226
NCI-H23 = test system: NCI-H23
NCI-H522 = test system: NCI-H522
OVCAR-3 = test system: OVCAR-3
OVCAR-4 = test system: OVCAR-4
SF-268 = test system: SF-268
SF-295 = test system: SF-295
SK-MEL-28 = test system: SK-MEL-28
SK-OV-3 = test system: SK-OV-3
SW-620 = test system: SW-620
UACC-62 = test system: UACC-62
HCT-15 = test system: HCT-15
SK-MEL-2 = test system: SK-MEL-2

Compound	GI50 (786-0)	GI50 (COLO 205)	GI50 (HCC 2998)	GI50 (HL-60)	GI50 (HOP-92)	GI50 (HT-29)	GI50 (LOX IMVI)	GI50 (NCI-H226)	GI50 (NCI-H23)	GI50 (NCI-H522)	GI50 (OVCAR-3)	GI50 (OVCAR-4)	GI50 (SF-268)	GI50 (SF-295)	GI50 (SK-MEL-28)	GI50 (SK-OV-3)	GI50 (SW-620)	GI50 (UACC-62)	GI50 (HCT-15)	GI50 (SK-MEL-2)
CN(O)C(=O)c1ccccc1	> 100 µM (inactive)	> 100 µM (inactive)	> 100 µM (inactive)	> 100 µM (inactive)	> 100 µM (inactive)	> 100 µM (inactive)	> 100 µM (inactive)	> 100 µM (inactive)	> 100 µM (inactive)	> 100 µM (inactive)	> 100 µM (inactive)	> 100 µM (inactive)	> 100 µM (inactive)	> 100 µM (inactive)	> 100 µM (inactive)	> 100 µM (inactive)	> 100 µM (inactive)	> 100 µM (inactive)	–	–
O=C(O)Cc1cc(=O)[nH]c2c1/C(=N/O)CCC2	> 100 µM (inactive)	–	> 100 µM (inactive)	> 100 µM (inactive)	> 100 µM (inactive)	> 100 µM (inactive)	–	> 100 µM (inactive)	> 100 µM (inactive)	> 100 µM (inactive)	> 100 µM (inactive)	–	> 100 µM (inactive)	> 100 µM (inactive)	> 100 µM (inactive)	> 100 µM (inactive)	> 100 µM (inactive)	–	> 100 µM	> 100 µM (inactive)
Cc1cc2nc3c(=O)n(C)c(=O)nc-3n(-c3ccc(Cl)cc3)c2cc1C	16.1 µM (inactive)	2.24 µM (inactive)	3.95 µM (inactive)	3.34 µM (inactive)	13.9 µM (inactive)	3.51 µM (inactive)	–	13.1 µM (inactive)	3.81 µM (inactive)	> 10 µM (inactive)	2.57 µM (inactive)	5.16 µM (inactive)	11.4 µM (inactive)	12.2 µM (inactive)	15.2 µM (inactive)	25.6 µM (inactive)	4.2 µM (inactive)	2.91 µM (inactive)	3.68 µM	11.8 µM (inactive)
CCCCC(=O)Nc1ccc2cc(C(=O)OC)c(=O)[nH]c2n1	> 100 µM (inactive)	> 100 µM (inactive)	> 100 µM (inactive)	–	> 100 µM (inactive)	–	> 100 µM (inactive)	> 100 µM (inactive)	> 100 µM (inactive)	> 100 µM (inactive)	> 100 µM (inactive)	> 100 µM (inactive)	> 100 µM (inactive)	> 100 µM (inactive)	> 100 µM (inactive)	> 100 µM (inactive)	> 100 µM (inactive)	–	> 100 µM	> 100 µM (inactive)
CCN(CC)CCNc1ccc2nnn3c4ccc(OC(C)=O)cc4c(=O)c1c23	–	2.45 µM (inactive)	2.53 µM (inactive)	–	3.9 µM (inactive)	1.47 µM (inactive)	1.47 µM (inactive)	0.615 µM (active)	3.77 µM (inactive)	0.628 µM (active)	7.96 µM (inactive)	2.36 µM (inactive)	3.01 µM (inactive)	4.51 µM (inactive)	13.4 µM (inactive)	7.35 µM (inactive)	1.11 µM (active)	11.4 µM (inactive)	1.46 µM	14.8 µM (inactive)
CCN(CC)CCCNC(=O)C1COc2cc(-c3cc(=O)c4ccccc4o3)ccc2O1 (stereo unspecified)	66.8 µM (inactive)	25.1 µM (inactive)	42.2 µM (inactive)	36.9 µM (inactive)	> 100 µM (inactive)	41.7 µM (inactive)	23.6 µM (inactive)	76 µM (inactive)	> 100 µM (inactive)	33.3 µM (inactive)	93.5 µM (inactive)	72.6 µM (inactive)	42.9 µM (inactive)	96.8 µM (inactive)	20.6 µM (inactive)	> 100 µM (inactive)	48.5 µM (inactive)	45.9 µM (inactive)	53 µM	–
CC1(C)OC2C(CO)OC(n3ccc(N)nc3=O)C2O1 (stereo unspecified)	> 100 µM (inactive)	> 100 µM (inactive)	> 100 µM (inactive)	> 100 µM (inactive)	> 100 µM (inactive)	–	> 100 µM (inactive)	> 100 µM (inactive)	> 100 µM (inactive)	> 100 µM (inactive)	> 100 µM (inactive)	–	> 100 µM (inactive)	> 100 µM (inactive)	> 100 µM (inactive)	> 100 µM (inactive)	> 100 µM (inactive)	> 100 µM (inactive)	> 100 µM	> 100 µM (inactive)
COc1ccc(/C(C)=N/NC(=S)N(C)C)c(O)c1	–	2.59 µM (inactive)	24.6 µM (inactive)	–	29.5 µM (inactive)	3.8 µM (inactive)	2.42 µM (inactive)	4.09 µM (inactive)	8.11 µM (inactive)	12.9 µM (inactive)	4.85 µM (inactive)	2.32 µM (inactive)	12 µM (inactive)	4.05 µM (inactive)	16.6 µM (inactive)	3.84 µM (inactive)	5.28 µM (inactive)	4.35 µM (inactive)	–	14.4 µM (inactive)
CC(=O)NCCC1CNc2ccccc21 (stereo unspecified)	–	> 100 µM (inactive)	> 100 µM (inactive)	> 100 µM (inactive)	> 100 µM (inactive)	> 100 µM (inactive)	> 100 µM (inactive)	> 100 µM (inactive)	> 100 µM (inactive)	> 100 µM (inactive)	> 100 µM (inactive)	> 100 µM (inactive)	> 100 µM (inactive)	> 100 µM (inactive)	> 100 µM (inactive)	> 100 µM (inactive)	> 100 µM (inactive)	> 100 µM (inactive)	> 100 µM	> 100 µM (inactive)
Cc1ccc([N+](=O)[O-])cc1NC(=O)C(=O)Cc1occc(=O)c1O	> 100 µM (inactive)	> 100 µM (inactive)	> 100 µM (inactive)	> 100 µM (inactive)	> 100 µM (inactive)	> 100 µM (inactive)	> 100 µM (inactive)	> 100 µM (inactive)	–	> 100 µM (inactive)	> 100 µM (inactive)	–	> 100 µM (inactive)	> 100 µM (inactive)	> 100 µM (inactive)	> 100 µM (inactive)	> 100 µM (inactive)	> 100 µM (inactive)	> 100 µM	–
N#CC(/N=N/c1ccc(Cl)cc1)c1nc2ccccc2o1 (stereo unspecified)	62.2 µM (inactive)	22.3 µM (inactive)	33 µM (inactive)	33.7 µM (inactive)	17.7 µM (inactive)	> 100 µM (inactive)	–	> 100 µM (inactive)	25.6 µM (inactive)	10.6 µM (inactive)	37.9 µM (inactive)	30.2 µM (inactive)	33.3 µM (inactive)	27.9 µM (inactive)	> 100 µM (inactive)	32.7 µM (inactive)	–	20.6 µM (inactive)	> 100 µM	28.7 µM (inactive)
C1=Nc2ccccc2Cn2nncc21	–	> 100 µM (inactive)	99.5 µM (inactive)	25.4 µM (inactive)	54.7 µM (inactive)	45.6 µM (inactive)	46.9 µM (inactive)	> 100 µM (inactive)	> 100 µM (inactive)	32.7 µM (inactive)	> 100 µM (inactive)	> 100 µM (inactive)	> 100 µM (inactive)	–	80.7 µM (inactive)	> 100 µM (inactive)	34 µM (inactive)	23 µM (inactive)	41.8 µM	78.2 µM (inactive)
N#C/C(=C\c1ccc(F)cc1)c1nc(-c2cc3ccccc3oc2=O)cs1	14.8 µM (inactive)	> 100 µM (inactive)	37.7 µM (inactive)	> 100 µM (inactive)	10.3 µM (inactive)	40.1 µM (inactive)	87.7 µM (inactive)	28.7 µM (inactive)	–	17.9 µM (inactive)	–	10.4 µM (inactive)	16.5 µM (inactive)	14 µM (inactive)	44.7 µM (inactive)	20.4 µM (inactive)	40.4 µM (inactive)	15 µM (inactive)	97.5 µM	30.3 µM (inactive)
CCCCCc1c(CCCC)c(O)nc2nc(NC(=O)CCCC)ccc12	> 100 µM (inactive)	> 100 µM (inactive)	> 100 µM (inactive)	–	> 100 µM (inactive)	–	> 100 µM (inactive)	> 100 µM (inactive)	> 100 µM (inactive)	> 100 µM (inactive)	> 100 µM (inactive)	> 100 µM (inactive)	> 100 µM (inactive)	> 100 µM (inactive)	> 100 µM (inactive)	> 100 µM (inactive)	> 100 µM (inactive)	–	> 100 µM	> 100 µM (inactive)
FC(F)(F)C1(C(F)(F)F)OC(Cl)(Cl)C(Cl)(Cl)O1	> 10 µM (inactive)	> 10 µM (inactive)	> 10 µM (inactive)	–	> 10 µM (inactive)	> 10 µM (inactive)	> 10 µM (inactive)	> 10 µM (inactive)	> 10 µM (inactive)	> 10 µM (inactive)	> 10 µM (inactive)	> 10 µM (inactive)	> 10 µM (inactive)	> 10 µM (inactive)	> 10 µM (inactive)	> 10 µM (inactive)	> 10 µM (inactive)	> 10 µM (inactive)	> 10 µM	> 10 µM (inactive)
Cn1c(/C=C/CO)c(CO)c2c1C(=O)C=C(N1CC1)C2=O [APAZIQUONE]	–	< 0.0122 µM (active)	< 0.01 µM (active)	0.0259 µM (active)	0.222 µM (active)	< 0.01 µM (active)	< 0.01 µM (active)	0.0185 µM (active)	–	0.0102 µM (active)	0.0206 µM (active)	0.0516 µM (active)	0.0137 µM (active)	< 0.01 µM (active)	0.0198 µM (active)	< 0.0134 µM (active)	< 0.01 µM (active)	< 0.01 µM (active)	< 0.01 µM	< 0.01 µM (active)
